Measured values published in PubChem BioAssay (NCI).
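A five-concentration, 48-hour dose response in 96-well plates underlies each endpoint, interpolated linearly between surrounding concentrations. TGI denotes the concentration required for complete inhibition of growth.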 Peptide text beside a SMILES is read from it. * marks the point of attachment. OSu = O=C1CCC(=O)N1O*; OBn = c1ccc(CO*)cc1; Bn = c1ccc(C*)cc1

Columns and labels:
Assay in all cases: inhibition of tumour cell growth, NCI panel, 48 h
[1] = system: HCC-2998 colon
[2] = system: HL-60(TB) leukemia
[3] = system: MDA-MB-435
[4] = system: PC-3 prostate
[5] = system: SK-MEL-28 melanoma
[6] = system: UO-31 renal
[7] = system: CCRF-CEM leukemia
[8] = system: M14 melanoma
[9] = system: MALME-3M melanoma
[10] = system: T-47D breast

| Compound | TGI [1] [µM] | TGI [2] [µM] | TGI [3] [µM] | TGI [4] [µM] | TGI [5] [µM] | TGI [6] [µM] | TGI [7] [µM] | TGI [8] [µM] | TGI [9] [µM] | TGI [10] [µM] |
| --- | --- | --- | --- | --- | --- | --- | --- | --- | --- | --- |
| Clc1cccc(N=C/C=C/Nc2cccc(Cl)c2)c1 | 25.2 | 39.9 | 28.9 | 28.4 | 29.6 | 34.2 |  |  |  |  |
| CN1N(c2ccccc2)C(=O)C2=NC=C(C#N)C(=N)C21C (stereo not drawn) | > 100 |  | > 100 | > 100 | > 100 | > 100 | > 100 | > 100 | > 100 |  |
| Cc1ccc(Nc2ccc(Nc3ccc(C)cc3S(=O)(=O)O)c3c2C(=O)c2ccccc2C3=O)c(S(=O)(=O)O)c1 | > 100 | > 100 |  |  | > 100 | > 100 | > 100 | > 100 | > 100 |  |
| COc1cc(C2C3=C(N=C4SC(C(C)=O)=C(C)N42)c2ccccc2CC3)cc(OC)c1OC (stereo not drawn) | > 100 | 81.4 | > 100 | > 100 | > 100 | > 100 | > 100 | > 100 |  | 50.9 |
| CCCN(CCC)c1c([N+](=O)[O-])cc(C(=O)N(C)C)cc1[N+](=O)[O-] | > 100 | 86.8 |  |  | > 100 | > 100 | > 100 | > 100 | > 100 |  |
| Cc1ccc(NC(=O)CC(=O)N2N=C(c3ccccc3)C(N=Nc3ccc(S(=O)(=O)CCOS(=O)(=O)O)cc3)C2=O)cc1 (stereo not drawn) | > 100 | > 100 | > 100 | > 100 | > 100 | > 100 | > 100 | > 100 | > 100 |  |
| O=C1CC(Cl)c2c(Cl)sc(Cl)c21 (stereo not drawn) | 5.54 | 3.23 | 6.34 | 5.64 | 4.58 | 3.67 |  | 3.94 | 6.63 | > 22 |
| COC(=O)c1ccccc1N=Cc1ccc(N(CCC#N)S(=O)(=O)c2ccccc2)cc1 |  | > 100 |  |  | > 100 | > 100 | > 100 | > 100 | > 100 |  |
| Oc1ccccc1C=Nc1ccccc1N=Cc1ccccc1O | > 100 | 81.5 |  |  | > 100 |  | > 100 | > 100 | > 100 |  |
| CC(CN(C)C)C(=O)/C=C/c1ccc(Cl)c(Cl)c1 (stereo not drawn) | 3.48 | 4.46 | 3.33 | 2.25 | 16.5 | 3.22 | 2.74 | 5.13 |  | > 100 |
| CC1(CO)C(=O)OC12CCCCC2 (stereo not drawn) | > 100 | > 100 |  |  | > 100 | > 100 | > 100 | > 100 | > 100 |  |
| CC(C)CC(NC(=O)C(N)CCC(=O)OCc1ccccc1)C(=O)NC(COCc1ccccc1)C(=O)NC(Cc1ccccc1)C(=O)ON1C(=O)CCC1=O (stereo not drawn) (H-E(OBn)LS(Bn)F-OSu; configuration not given here) |  |  | > 100 | 63.2 | 68.6 | 59 | 82.1 | > 100 | 96.1 |  |
| COC(=O)C(N)CCCC(N)C(=O)NC(C)C(=O)NC(CCC(=O)NCCCNc1ccc([N+](=O)[O-])c2[nH]c3ccccc3c(=O)c12)C(N)=O (stereo not drawn) | 21.8 |  | 17.6 | 19.8 | 22 | 13.8 | 14.3 | 17.9 |  | 33.9 |
| O=[N+]([O-])c1cc(Cl)ccc1S(=O)(=O)c1cc(Cl)cc2c1NCCC2 | > 100 | > 100 | > 100 | > 100 | > 100 | > 100 | > 100 | > 100 | > 100 |  |
| Cc1cnc2[nH]c(-c3cccc(Cl)c3)cc(=O)c2c1 |  | 0.609 |  | > 100 | > 100 | > 100 | > 100 | > 100 | > 100 |  |
| CC(C)=CCC/C(C)=C/CC/C(C)=C/CSc1ccc(Cl)cc1C(=O)O | 34.7 | 50.8 | 42.2 | 29.7 | 33.9 | 31.4 | 48.9 | 36.5 | 38.4 |  |
| c1ccc2nn(C3CCCCO3)nc2c1 (stereo not drawn) | > 100 |  | > 100 | > 100 |  | > 100 | > 100 | > 100 | > 100 | > 100 |
| CCOC(=O)O/N=C1/C(c2c(O)[nH]c3ccccc23)=Nc2ccccc21 | 6.46 | 24.1 | 17.3 |  | 41.8 | 40.6 | 16.6 | 24.2 | 22.1 | 25.6 |
| CCOC(=O)C12C(=O)CCN1CCc1ccccc1C2C (stereo not drawn) |  | > 100 | > 100 | > 100 | > 100 | > 100 |  | > 100 | > 100 | > 100 |
| Cc1nn(-c2ccccc2)c2c1N=C(C(=O)O)CC(c1ccccc1)=N2 | > 10 | > 10 | > 10 | > 10 | > 10 |  |  | > 10 | > 10 | > 10 |
| CC12CCC(C1)C(C)(C)C2OC(=O)c1ccccc1C(=O)O (stereo not drawn) | > 100 | > 100 | > 100 | > 100 | > 100 | > 100 |  | > 100 | > 100 | > 100 |
| CC1CN=C(N(C)C(=O)Nc2ccc(Cl)c(Cl)c2)S1 (stereo not drawn) | > 100 | 57.1 |  | > 100 | 37.9 | > 100 | > 100 | 38 | > 100 | > 100 |
| O=C1C=C(NCCc2cc(Br)c(O)c(Br)c2)C(=O)c2[nH]cnc21 | > 100 |  | 29.3 | > 100 | > 100 | > 100 | 41.7 | 57.7 | 30 | 88.8 |
| Cc1nc2ccccc2cc1C[N+]12CN3CN(CN(C3)C1)C2 | 30.8 |  | 49.3 | 34.3 | 45.1 | 57.4 | 23.7 | 39.1 | 32 | > 100 |
| CCOC(=O)CN(Cc1ccccc1)Cc1c(C(=O)c2ccccc2)c2ccccc2n1C(=O)c1ccccc1 | > 100 |  |  |  | > 100 | > 100 | > 100 | > 100 | > 100 |  |
